# Test results from US8912184B1, “Therapeutic and diagnostic methods” (Alzheimer's Institute of America, Inc., priority 2010, dated 2014).
# pEC50, pIC50: −log10 of the molar value.
# Assays:
# [1] = tested on: HCT116 cells; assay: 72 Hour HCT116 Cytotoxicity Assay (CellTiter-Glo); format: cell-based; conditions: Homo sapiens, HCT-116, 72 h, 72 hours; read-out: HCT116 cell cytotoxicity IC50
# Description: HCT116 cells were seeded in 96 well plates (Greiner Bio-One, Monroe, N.C.) and allowed to settle overnight. Test compound dissolved in dimethyl sulfoxide (DMSO) was added and drug incubation proceeded for 72 hours. […] After 72 hour, 50 μL of CellTiter-Glo Luminescent Cell Viability Assay reagent (Promega Corporation, Madison, Wis.) was added to cells in 200 μL of cellular media. After a proscribed incubation period, luminescence was measured using a TopCount NXT plate reader (PerkinElmer, Waltham, Mass.).
# [2] = tested on: HCT116 cells; assay: Nicotinic Acid Rescue Cytotoxicity Assay, first method: cytotoxicity to HCT116 cells in presence and absence of 10 μM nicotinic acid; format: cell-based; conditions: Homo sapiens, HCT-116, 72 h
# Description: Additionally, Nicotinic Acid (NA) rescue of cytotoxicity of Nampt inhibitors was assessed by two distinct methods. In the first method, Nampt1 inhibitor cytotoxicity was evaluated in the presence and absence of exogenous nicotinic acid (NA) at a fixed concentration. […] Twenty four hours after cells were plated, the media was removed and replaced with media containing 10 μM nicotinic acid. Compounds were then immediately added. Cell viability was then assessed at 72 h.
# Using the first of the two assays described above, the 90 compounds shown in Table 5, below, were tested for cytotoxicity towards Naprt1-proficient HCT116 cells, and for the ability of NA to block the observed cytotoxicity (or “rescue” the cells from the cytotoxic activity of the tested compound). The compounds listed are referred to by a unique rescue analysis example number (i.e., R1, R2 . . . R90) that is used as a reference number in Table 4, in which the results of the cytotoxicity and rescue assays are presented.
# [3] = tested on: HCT-116 cell line; assay: cells; conditions: Homo sapiens, HCT-116, 72 h, read-out: EC50 of NA rescue from Exemplary Compound A-induced cytotoxicity
# Description: (§1) In the second method, cells were exposed to varying concentrations of NA in the presence of a fixed, toxic concentration of Nampt1 inhibitor. This allows determination of the relative effectiveness of NA at rescuing Nampt1 inhibitor-mediated cytotoxicity across cell lines. For this method, the following modifications were made to the standard cytotoxicity assay. Twenty four hours after cell were plated, a serial dilution of nicotinic acid, dissolved in water, was generated and added to the cells. […] Cell viability was then assessed at 72 h. Cell viability (after normalization to controls lacking Nampt1 inhibitor) was plotted against NA concentration.
# (§2) In cases where the high asymptote of the NA rescue curve corresponded to 75% or less recovery in cell viability, the cell line was deemed to be partially rescued.
# (§3) In the first set of experiments, two different cancer cell lines were employed.
# [4] = tested on: MIA PaCa2 cell line; assay: cells; conditions: Homo sapiens, MIA PaCa-2, 72 h, read-out: EC50 of NA rescue from Exemplary Compound A-induced cytotoxicity
# Description: as §1, §2, §3
# [5] = format: in vivo; conditions: mice, oral NA 3 g/kg 1 h prior or up to 8 h following 300 mg/kg Exemplary Compound A
# [6] = absence of nicotinic acid, read-out: HCT116 72 h cytotoxicity
# [7] = presence of 10 μM nicotinic acid, read-out: HCT116 72 h cytotoxicity with 10 μM Nicotinic Acid
smiles,measurement,setting,value
"O=C(NCCCNS(=O)(=O)c1ccccc1-c1ccccc1)NCc1cccnc1 [Example 152, N-(3-{[(pyridin-3-ylmethyl)carbamoyl]a-mino}propyl)biphenyl-2-sulfonamide]",pIC50,[1],~7.26
"O=C(NCc1cccnc1)Nc1ccc(COc2cc(C(F)(F)F)ccc2Cl)cc1 [Example 164, 1-(4-{[2-Chloro-5-(trifluorometh-yl)phenoxy]meth-yl}phenyl)-3-(pyridin-3-ylmethyl)urea]",pIC50,[1],~7.13
"O=C(NCc1cccnc1)Nc1ccc(C[S+]([O-])c2ccccc2-c2ccccc2)cc1 (centres unmarked) [Example 210, 1-{4-[(biphenyl-2-ylsulfinyl)meth-yl]phenyl}-3-(pyridin-3-ylmethyl)urea]",pIC50,[1],~7.41
"N#C/N=C(/NCc1ccc(COc2ccccc2-c2ccccc2)cc1)Nc1ccncc1 [Example 605, 1-{4-[(Biphenyl-2-yloxy)methyl]benzyl}-2-cyano-3-pyridin-4-ylguanidine]",pIC50,[1],~8.96
"O=C(NCc1cccnc1)Nc1ccc(NS(=O)(=O)c2cc(Cl)ccc2Cl)cc1 [Example R74, 2,5-dichloro-N-(4-{[(pyridin-3-ylmethyl)carbamoyl]amino}phenyl)benzene-sulfonamide]",pIC50,[2]; [6],8.64
same,pIC50,[2]; [7],< 5.30
"O=C(NCc1cccnc1)Nc1ccc(NS(=O)(=O)c2ccc(Cl)cc2Cl)cc1 [Example R75, 2,4-dichloro-N-(4-{[(pyridin-3-ylmethyl)carbamoyl]amino}phenyl)benzene-sulfonamide]",pIC50,[2]; [6],7.52
same,pIC50,[2]; [7],< 5.30
"Cc1cc(S(=O)(=O)Nc2ccc(NC(=O)NCc3cccnc3)cc2)c(Cl)cc1Cl [Example R76, 2,4-dichloro-5-methyl-N-(4-{[(pyridin-3-ylmethyl)carbamoyl]amino}phenyl)benzene-sulfonamide]",pIC50,[2]; [6],8.89
same,pIC50,[2]; [7],< 5.30
"O=C(NCc1cccnc1)Nc1ccc(OCc2ccccc2-c2ccccc2)cc1 [Example R77, 1-[4-(biphenyl-2-ylmethoxy)phenyl]-3-(pyridin-3-ylmethyl)urea]",pIC50,[2]; [6],8.77
same,pIC50,[2]; [7],< 5.30
"N#C/N=C(/NCCCCNC(=O)COc1ccccc1-c1ccccc1)Nc1ccncc1 [Example R78, 2-(Biphenyl-2-yloxy)-N-(4-{[(Z)-(cyanoamino)(pyridin-4-ylamino)methylidene]amino}butyl)acetamide]",pIC50,[2]; [6],9.30
same,pIC50,[2]; [7],< 5.30
"O=C(NCCCCCCOc1ccc(Cl)cc1)Nc1ccncc1 [Example R79, 1-[6-(4-Chlorophenoxy)hexyl]-3-pyridin-4-ylurea]",pIC50,[2]; [6],7.05
same,pIC50,[2]; [7],< 5.30
"O=C(NCc1cccnc1)Nc1ccc(COc2ccccc2-c2ccsc2)cc1 [Example R80, 1-(Pyridin-3-ylmethyl)-3-(4-{[2-(thiophen-3-yl)phenoxy]methyl}phenyl)urea]",pIC50,[2]; [6],9.05
same,pIC50,[2]; [7],< 5.30
"O=C(NCc1cccnc1)Nc1ccc(COc2ccccc2-c2ccncc2)cc1 [Example R81, 1-(Pyridin-3-ylmethyl)-3-(4-{[2-(pyridin-4-yl)phenoxy]methyl}phenyl)urea]",pIC50,[2]; [6],8.27
same,pIC50,[2]; [7],< 5.30
"O=C(NCc1cccnc1)Nc1ccc(COc2ccccc2-c2cccc(F)c2)cc1 [Example R82, 1-(4-{[(3′-Fluorobiphenyl-2-yl)oxy]methyl}phenyl)-3-(pyridin-3-ylmethyl)urea]",pIC50,[2]; [6],8.72
same,pIC50,[2]; [7],< 5.30
"O=C(NCc1cccnc1)Nc1ccc(COc2ccccc2-c2cccnc2)cc1 [Example R83, 1-(Pyridin-3-ylmethyl)-3-(4-{[2-(pyridin-3-yl)phenoxy]methyl}phenyl)urea]",pIC50,[2]; [6],8.82
same,pIC50,[2]; [7],< 5.30
"CCn1cc(-c2ccccc2OCc2ccc(NC(=O)NCc3cccnc3)cc2)cn1 [Example R84, 1-(4-{[2-(1-Ethyl-1H-pyrazol-4-yl)phenoxy]methyl}phenyl)-3-(pyridin-3-ylmethyl)urea]",pIC50,[2]; [6],7.97
same,pIC50,[2]; [7],< 5.30
"O=C(NCCCCCOc1ccccc1-c1ccccc1)NCc1cccnc1 [Example R85, 1-[5-(Biphenyl-2-yloxy)pentyl]-3-(pyridin-3-ylmethyl)urea]",pIC50,[2]; [6],8.89
same,pIC50,[2]; [7],< 5.30
"O=C(NCc1cccnc1)Nc1ccc(CNc2ccccc2-c2ccccc2)cc1 [Example R86, 1-{4-[(Biphenyl-2-ylamino)methyl]phenyl}-3-(pyridin-3-ylmethyl)urea]",pIC50,[2]; [6],9.40
same,pIC50,[2]; [7],5.40
"O=C(NCc1cccnc1)Nc1ccc(C2(Oc3ccccc3-c3ccccc3)CC2)cc1 [Example R87, 1-{4-[1-(Biphenyl-2-yloxy)cyclopropyl]phenyl}-3-(pyridin-3-ylmethyl)urea]",pIC50,[2]; [6],8.96
same,pIC50,[2]; [7],5.52
"O=C(NCc1cccnc1)Nc1ccc(NS(=O)(=O)c2ccccc2-c2ccn[nH]2)cc1 [Example R88, 2-(1H-Pyrazol-5-yl)-N-(4-{[(pyridin-3-ylmethyl)carbamoyl]amino}phenyl)benzene-sulfonamide]",pIC50,[2]; [6],8.60
same,pIC50,[2]; [7],< 5.30
"CCn1cc(-c2ccccc2S(=O)(=O)Nc2ccc(NC(=O)NCc3cccnc3)cc2)cn1 [Example R89, 2-(1-Ethyl-1H-pyrazol-4-yl)-N-(4-{[(pyridin-3-ylmethyl)carbamoyl]amino}phenyl)benzene-sulfonamide]",pIC50,[2]; [6],7.47
same,pIC50,[2]; [7],< 5.30
"O=C(NCc1cccnc1)Nc1ccc(NS(=O)(=O)c2ccccc2-c2ccccc2)nc1 [Example R90, N-(5-{[(Pyridin-3-ylmethyl)carbamoyl]amino}pyridin-2-yl)biphenyl-2-sulfonamide]",pIC50,[2]; [6],7.54
same,pIC50,[2]; [7],< 5.30
"O=C(O)c1cccnc1 [NA, nicotinic acid]",pEC50,[3],6.40
same,pEC50,[4],< 5.00
same,effect of NA on Exemplary Compound A lethality,[5],completely blocked
